Reference: patent publication US7803774B2, “Modulators of β-amyloid peptide aggregation” (Praecis Pharmaceuticals, Inc., priority 1999, dated 2010)
Structures can show the parent of a compound that is named as a salt.

Assays:
[1] = biological target: T1, Aβ1-40 (Homo sapiens, UniProt P05067); assay: Nucleation assay (turbidity, change in lag time of Aβ aggregation); assay type: biochemical; settings: for Nucleation assay data 0.3 μM: 0.3 μM test compound; for Nucleation assay data 0.3 μM / Nucleation assay data 1 μM / Nucleation assay data 3 μM: ΔLag ratio to control; for Nucleation assay data 0.3 μM / Nucleation assay data 1 μM / Nucleation assay data 3 μM / Nucleation assay data: Table II; for Nucleation assay data 1 μM: 1 μM test compound; for Nucleation assay data 3 μM: 3 μM test compound; for Nucleation assay data 3 μM / Nucleation assay Δ lag 1.25 μM / Nucleation assay Δ lag 5 μM / Nucleation assay Δ lag […]: 5 μM Aβ1-40; for Nucleation assay data: footnote *: measured at 1.25 μM of compound; for Nucleation assay Δ lag 1.25 μM: 1.25 μM test compound; for Nucleation assay Δ lag 1.25 μM / Nucleation assay Δ lag […]: ratio to control lag time; for Nucleation assay Δ lag 5 μM: 5 μM test compound, ratio of lag time with compound to lag time of control; for Nucleation assay Δ lag […]: […] test compound
T1 construct: first Aβ1-40 peptide is dissolved in HFIP
Source text: The nucleation assay is employed to determine the ability of test compounds to alter (e.g. inhibit) the early events in formation of β-AP fibers from monomeric β-AP. Characteristic of a nucleated polymerization mechanism, a lag time is observed prior to nucleation, after which the peptide rapidly forms fibers as reflected in a linear rise in turbidity. The time delay before polymerization of β-AP monomer can be quantified as well as the extent of formation of insoluble fiber by light scattering (turbidity). Polymerization reaches equilibrium when the maximum turbidity reaches a plateau. The turbidity of a solution of natural β-AP in the absence or presence of various concentrations of a β-amyloid modulator compound is determined by measuring the apparent absorbance of the solution at 405 nm (A405nm) over time. The threshold of sensitivity for the measurement of turbidity is in the range of 15-20 μM β-AP. […] This assay can be performed using stirring or shaking to accelerate polymerization, thereby increasing the speed of the assay. Moreover the assay can be adapted to a 96-well plate format to screen multiple compounds.
To perform the nucleation assay, first Aβ1-40 peptide is dissolved in HFIP (1,1,1,3,3,3-Hexafluoro-2-propanol; Aldrich 10,522-8) at a concentration of 2 mg peptide/ml and incubated at room temperature for 30 min. HFIP-solubilized peptide is sonicated in a waterbath sonicator for 5 min at highest setting, then evaporated to dryness under a stream of argon. The peptide film is resuspended in anhydrous dimethylsulfoxide (DMSO) at a concentration of 6.9 mg/ml (25× concentration), sonicated for 5 min as before, then filtered through a 0.2 micron nylon syringe filter (VWR cat. No. 28196-050). Test compounds are dissolved in DMSO at a 100× concentration. Four volumes of 25×Aβ1-40 peptide in DMSO are combined with one volume of test compound in DMSO in a glass vial, and mixed to produce a 1:1 molar ratio of AP peptide to test compound. For different molar ratios, test compounds are diluted with DMSO prior to addition to Aβ1-40, in order to keep the final DMSO and Aβ1-40 concentrations constant. […] Ten microliters of the mixture is then added to the bottom of a well of a Corning Costar ultra low binding 96-well plate (Coming Costar, Cambridge Mass.; cat. No. 2500). Ninety microliters of water is added to the well, the plate is shaken on a rotary shaken at a constant speed at room temperature for 30 seconds, an additional 100 μl of 2×PTL buffer (20 mM NaH2PO4, 300 mM NaCl, pH 7.4) is added to the well, the plate is reshaken for 30 seconds and a baseline (t=0) turbidity reading is taken by measuring the apparent absorbance at 405 nm using a Bio-Rad Model 450 Microplate Reader. The plate is then returned to the shaker and shaken continuously for 5 hours. Turbidity readings are taken at 15 minute intervals.
β-amyloid aggregation in the absence of any modulators results in enhanced turbidity of the natural β-AP solution (i.e., an increase in the apparent absorbance at 405 nm over time).
The modulator compounds were evaluated in nucleation assays utilizing 5 μM Aβ1-40 and either 5 μM, 2.5 μM, 1.25 μM, 3 μM, 1 μM, or 0.3 μM test compound. The change in lag time (ΔLag) is presented as the ratio of the lag time observed in the of the test compound (at either 5 μM, 2.5 μM, 1.25 μM, 3 μM, 1 μM, or 0.3 μM) to the lag time of the control.

[2] = biological target: T1, Aβ1-40; assay: as above; assay type: biochemical; settings: for Nucleation assay data: footnote *: measured at 0.6 μM of compound, Table II
[3] = BUI#77: IN VIVO: IV BRAIN LEVELS @ 1 HOUR post 1 mL x 1 min IV
Procedure: Table printed on a drawing sheet, Fig. 1
Title: BUI#77: IN VIVO: IV BRAIN LEVELS @ 1 HOUR post 1 mL x 1 min IV
The patent's description of the figure: FIG. 1 is a table depicting the results from a brain uptake assay.
First reader's note: Rows with only a Structure cell (l-v-f-f-a, TFA. l-v-f-f-l, TFA. l-f-f-v-l) are bold group headings for the rows below them; the asterisk printed in the gap before the UNIT DOSE block is kept in its own unheaded column.

T1 sequence (P05067 672-711): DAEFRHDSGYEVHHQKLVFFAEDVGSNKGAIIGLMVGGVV

## 2TFA.H-(lfkvl)-NH2 [PPI-1321]
[1]
  Nucleation assay data 0.3 μM: <1
  Nucleation assay data 1 μM: <1
  Nucleation assay data 3 μM: <1

## 2TFA.H-lvf-NH-NH-fvl-H [PPI-1125]
[1]
  Nucleation assay data: >2.5
[2]
  Nucleation assay data: 2.0

## CC(C)C[C@@H](N)C(=O)N[C@H](Cc1ccccc1)C(=O)N[C@H](Cc1ccccc1)C(=O)N[C@@H](C(=O)N[C@H](CC(C)C)C(N)=O)C(C)C [578 | 578, TFA. H-(lffvl)-NH2]
[3]
  MAX SOLUBILITY | Brain Levels (nM) + CsA | mean: 57 nM
  MAX SOLUBILITY | Brain Levels (nM) | mean: 7.6 nM
  UNIT DOSE (2mg/kg IV) | (+)CsA: 16 nM
  UNIT DOSE (2mg/kg IV) | ALONE: 2 nM

## CC(C)C[C@@H](N)C(=O)N[C@@H](C(=O)N[C@H](Cc1ccccc1)C(=O)N[C@H](Cc1ccccc1)C(=O)N[C@H](C)C(N)=O)C(C)C [655 | 655, TFA. H-(lvffa)-NH2]
[3]
  MAX SOLUBILITY | Brain Levels (nM) + CsA | mean: 50 nM
  MAX SOLUBILITY | Brain Levels (nM) | mean: 7.9 nM
  UNIT DOSE (2mg/kg IV) | (+)CsA: 22 nM
  UNIT DOSE (2mg/kg IV) | ALONE: 3 nM

## CN[C@H](CC(C)C)C(=O)N[C@@H](C(=O)N[C@H](Cc1ccccc1)C(=O)N[C@H](Cc1ccccc1)C(=O)N[C@H](C)C(N)=O)C(C)C [1019 | 1019, TFA. N-methyl-(lvffa)-NH2]
[3]
  MAX SOLUBILITY | Brain Levels (nM) + CsA | mean: 29 nM
  MAX SOLUBILITY | Brain Levels (nM) | mean: 7.2 nM
  UNIT DOSE (2mg/kg IV) | (+)CsA: 17 nM
  UNIT DOSE (2mg/kg IV) | ALONE: 4 nM

## CC(C)C[C@@H](N)C(=O)N[C@H](Cc1c(F)c(F)c(F)c(F)c1F)C(=O)N[C@H](Cc1ccccc1)C(=O)N[C@@H](C(=O)N[C@H](CC(C)C)C(N)=O)C(C)C [PPI-1324, TFA.H-(l-[F5]f-fvl)-NH2]
[3]
  MAX SOLUBILITY | Brain Levels (nM) + CsA | mean: 23 nM
  MAX SOLUBILITY | Brain Levels (nM) | mean: 4.1 nM
  UNIT DOSE (2mg/kg IV) | (+)CsA: 9 nM
  UNIT DOSE (2mg/kg IV) | ALONE: 2 nM

## TFA.H-(Glvffl)-NH2 [PPI-1013]
[1]; footnote #: measured at 1.25 μM of compound, Table I
  Nucleation assay Δ lag: >3
[2]; footnote #: measured at 0.6 μM of compound, Table I
  Nucleation assay Δ lag: 2

## TFA.H-(lf-D-Cha-vl)-NH2 [PPI-1318]
[1]
  Nucleation assay data 0.3 μM: 1
  Nucleation assay data 1 μM: 2
  Nucleation assay data 3 μM: >5

## TFA.H-(lf-[F5]f-vl)-NH2 [PPI-1320]
[1]
  Nucleation assay data 0.3 μM: 1
  Nucleation assay data 1 μM: 3
  Nucleation assay data 3 μM: >5

## TFA.H-(lvffa)-dimethylamide [PPI-993]
[1]
  Nucleation assay Δ lag 1.25 μM: 1
  Nucleation assay Δ lag 5 μM: 1
  Nucleation assay Δ lag […]: 1

## TFA.H-(lvffa)-isopropylamide [PPI-992]
[1]
  Nucleation assay Δ lag 1.25 μM: 1
  Nucleation assay Δ lag 5 μM: 3
  Nucleation assay Δ lag […]: 1

## TFA.N,N-diethyl-(Gaffvl)-NH2 [PPI-1005]
[1]
  Nucleation assay Δ lag 1.25 μM: 1
  Nucleation assay Δ lag 5 μM: 3
  Nucleation assay Δ lag […]: 3

## TFA.N,N-diethyl-(affvl)-NH2 [PPI-1006]
[1]
  Nucleation assay Δ lag 1.25 μM: 1
  Nucleation assay Δ lag 5 μM: 1
  Nucleation assay Δ lag […]: 1

## TFA.N,N-dimethyl-(Gaffv1)-NH2 [PPI-803]
[1]
  Nucleation assay Δ lag 1.25 μM: <1
  Nucleation assay Δ lag 5 μM: <1
  Nucleation assay Δ lag […]: <1

## TFA.N,N-dimethyl-(affvl)-NH2 [PPI-913]
[1]
  Nucleation assay Δ lag 1.25 μM: 1
  Nucleation assay Δ lag 5 μM: 1
  Nucleation assay Δ lag […]: 1

## TFA.N-ethyl-(Gaffvl)-NH2 [PPI-969]
[1]
  Nucleation assay Δ lag 1.25 μM: 3
  Nucleation assay Δ lag 5 μM: >5
  Nucleation assay Δ lag […]: >5

## TFA.N-isopropyl-(Gaffvl)-NH2 [PPI-970]
[1]
  Nucleation assay Δ lag 1.25 μM: 1
  Nucleation assay Δ lag 5 μM: >5
  Nucleation assay Δ lag […]: >5

## TFA.N-methyl-(Gaffvl)-NH2 [PPI-968]
[1]
  Nucleation assay Δ lag 1.25 μM: 2
  Nucleation assay Δ lag 5 μM: >5
  Nucleation assay Δ lag […]: >5

## TFA.N-methyl-(lvffl)-NH2 [PPI-1019]
[1]
  Nucleation assay data: >2.5
[2]
  Nucleation assay data: 2.0
